Data on one compound can be found in patent US11453701B2, “Tau aggregation peptide inhibitors” (ADRX, INC., priority 2017, dated 2022).

The structures appear in SMILES notation. Values joined by “and” are separate entries in the source; they are usually repeats but may differ in a detail not shown here. Identical values can stand only once. Square brackets hold non-standard residues; d marks the D form. Peptide text beside a SMILES is read from it.

This assay deals with T1, Tau40 P301L protein (Homo sapiens, UniProt P10636, P618L).
T1 construct: His (N); made in house; host or cells: E. coli BL21
Briefly: Thioflavin T assay of Tau40 amyloid inhibition (Tau40 assay). To be noted: Thioflavin T fluorescence, Tau40 P301L 2.5 μM, 10 μM heparin. The assay is classed as biochemical.

T1 sequence (P10636 1-441 isoform P10636-8 P301L): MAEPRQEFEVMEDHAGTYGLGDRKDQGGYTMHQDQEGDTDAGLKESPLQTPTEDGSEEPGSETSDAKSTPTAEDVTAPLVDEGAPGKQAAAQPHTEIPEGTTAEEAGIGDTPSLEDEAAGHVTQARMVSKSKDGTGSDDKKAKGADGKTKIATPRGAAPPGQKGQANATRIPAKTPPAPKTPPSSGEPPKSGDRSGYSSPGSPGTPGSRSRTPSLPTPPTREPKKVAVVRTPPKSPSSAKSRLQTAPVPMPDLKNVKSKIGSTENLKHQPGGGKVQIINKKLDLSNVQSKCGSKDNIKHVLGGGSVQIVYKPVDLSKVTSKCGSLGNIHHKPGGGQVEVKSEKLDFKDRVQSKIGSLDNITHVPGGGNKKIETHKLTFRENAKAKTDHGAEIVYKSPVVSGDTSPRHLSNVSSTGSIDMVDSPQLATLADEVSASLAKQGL

With `CC[C@@H](C)[C@@H](NC(=O)[C@@H](Cc1c[nH]cn1)NC(=O)[C@@H](CC(C)C)NC(=O)[C@@H](CCCCN)NC(=O)[C@H](N)Cc1ccccc1)C(=O)N[C@H](CCCNC(=N)N)C(=O)N[C@H](Cc1c[nH]cn1)C(=O)N[C@H](Cc1c[nH]c2ccccc12)C(=O)O` [compound 128] (H-[dF][dK][dL][dH][dI][dR][dH][dW]-OH; N-terminus and C-terminus assumed), the IC50 is 1710 nM and 1760 nM.
